Assay results reported in patent US20080004561A1, “Method for Treating Oncological, Virulent and Somatic Diseases, Method for Controlling Treatment Efficiency, Pharmaceutical Agents and Composition for Carrying Out Said Treatment” (priority 2005, published 2008).

Experiments:
LLC tumor = LLC tumor growth under Doxorubicin, plasma DNA of chemotherapy-treated mice and DNase I (Example 14); assay type: in vivo, C57B1 mice
Excerpt: Blood plasma DNA of tumor-bearing mice was received according to technique described above. Highly metastatic and low metastatic stains of mice' Luice lung carcinoma and Erlich carcinoma were used. Cells were cultivated in RPMI-1640 media with adding of 10% embryonic calf serum, 1% penicillin—streptomycin in 5% carbon dioxide atmosphere. For tumor induction in mice, cells were cultivated until the monolayer, than were detached with trypsin-EDTA solution. Cells were washed trice by centrifuging in phosphate buffer and were resuspensed until their concentration have become 0.5×10^7/ml. Viability was defined by inclusion of methylene blue in hemocytometer. Suspensions that contained 95% of viable cells were used for administration to animals.
Mice of C57B1 line and white not thoroughbred mice from “Rappolovo” animal house were used. Weight of animals was 24-26 grams. Animals were contained in cages, for 6-7 mice per one cage on a standard diet without water restriction. LLC cells in dose of 5×10^5 in 100 mkl of phosphate buffer were injected in soft tissues of thigh. Erlich tumor was subcutaneously replanted on the right side by injection of 0.2 ml 10% cells' suspension in isotonic sodium chloride solution.

Erlich carcinoma = assay: Combined use of DNase and Doxorubicin, Erlich tumor growth (Example 3); assay type: in vivo, mice; settings: Doxorubicin 2 mg/kg intravenously once a day and/or DNase 0.5 mg/kg intraperitoneally four times a day, day 3 to 7; 7th day after transplantation
Procedure: Bovine pancreatic DNase I (Fermentas) and human recombinant DNase […]) were used. DNase I solution for injections were prepared by dissolving of DNase matrix solution in sterile phosphate buffer directly before administration. […] Blood plasma DNA of tumor-bearing mice was received according to technique described above. Highly metastatic and low metastatic stains of mice' Luice lung carcinoma and Erlich carcinoma were used. […] For tumor induction in mice, cells were cultivated until the monolayer, than were detached with trypsin-EDTA solution. Cells were washed trice by centrifuging in phosphate buffer and were resuspensed until their concentration have become 0.5×10^7/ml. Viability was defined by inclusion of methylene blue in hemocytometer. […] Mice of C57B1 line and white not thoroughbred mice from “Rappolovo” animal house were used. Weight of animals was 24-26 grams. Animals were contained in cages, for 6-7 mice per one cage on a standard diet without water restriction. LLC cells in dose of 5×10^5 in 100 mkl of phosphate buffer were injected in soft tissues of thigh. […] Group 1-10 mice transplanted with Erlich carcinoma (control). Group 2-10 mice replanted with Erlich carcinoma. […] Group 3-10 mice replanted with Erlich carcinoma. […] Group 4-10 mice replanted with Erlich carcinoma. […] Results of experiments were estimated according to tumor's growth inhibition (TGI) that were expressed in percents to control data received at last day of DNase injection with standard formula using.

P-glycoprotein = P-glycoprotein expression in Erlich carcinoma, immunohistochemical staining (Example 13); assay type: in vivo, mice; settings: 5 day therapy from 3rd day: Doxorubicin 2 mg/kg intravenously daily, DNase I 0.5 mg/kg four times a day; tissue on 8th day
Procedure: Mice were subjected to course of 5 day therapy with Doxorubicin (2 mg/kg intravenously daily) or Doxorubicin+DNase I (0.5 mg/kg four times a day during 5 days)
Tissue preparations were executed on the 8th day of tumor's transplantation.

[1] = Toxic effect of human DNase I injection on animals; assay type: in vivo; settings: single and multiple injection of up to 2.5 mg/kg
[2] = Influence of DNase I therapy on old rats' life time (Example 19); assay type: in vivo; settings: 24 month old rats, 500 mg/kg intravenously 2 times a week during 2 months
Procedure: White not thoroughbred 24 month old rats were used in experiment. In the study group (10 animals) rats starting from the age of 24 months were subjected to intravenous administration of polysialated human DNase I at […] (equivalent dose of non-modified enzyme) 2 times a week during 2 months. Control group of animals got the administration of placebo. Average life time of rats from control group was 27.8 months. Average life time of rats from experimental group was 30.1 months.

Molecule: O=P1(N(CCCl)CCCl)NCCCO1 (centres unmarked) [Cyclophosphamide]
- tumor inhibition at day 8 (LLC tumor; mouse, in vivo): 30%

Molecule: COc1cccc2c1C(=O)c1c(O)c3c(c(O)c1C2=O)C[C@@](O)(C(=O)CO)C[C@@H]3O[C@H]1C[C@H](N)[C@H](O)[C@H](C)O1 [Doxorubicin]
- T% (tumor's growth inhibition) (Erlich carcinoma): 42%
- Tumor's volume (Erlich carcinoma): 57 +/− 10
- P-glycoprotein expression in tumor tissue (P-glycoprotein): Multifocal expression
- Tumor's size (LLC tumor; 8th day after transplantation, Doxorubicin 2 mg/kg i.v. daily day 3-8, DNA 0.05 mkg i.v. day 1 and 3 of treatment, DNase I 0.5 mg/kg i.p. 4 times a day, first and second days): 67 +/− 7
- tumor inhibition at day 8 (LLC tumor; Doxorubicin 2 mg/kg daily for 5 days from day 3, Cyclophosphamide 15 mg/kg intraperitoneally once on 3rd day): 50%

B1: human DNase I: human recombinant DNase I (Dornase; Gentech) (protein, UniProt P24855 23-282, looked up)
Deoxyribonuclease-1: LKIAAFNIQTFGETKMSNATLVSYIVQILSRYDIALVQEVRDSHLTAVGKLLDNLNQDAPDTYHYVVSEPLGRNSYKERYLFVYRPDQVSAVDSYYYDDGCEPCGNDTFNREPAIVRFFSRFTEVREFAIVPLHAAPGDAVAEIDALYDVYLDVQEKWGLEDVMLMGDFNAGCSYVRPSQWSSIRLWTSPTFQWLIPDSADTTATPTHCAYDRIVVAGMLLRGAVVPDSALPFNFQAAYGLSDQLAQAISDHYPVEVMLK
- Toxic effect on animals [1]: no toxic effect

B2: polysialated human DNase I: polysialated human DNase I, dose as equivalent of non-modified enzyme (protein, UniProt P24855 23-282, looked up)
Deoxyribonuclease-1: LKIAAFNIQTFGETKMSNATLVSYIVQILSRYDIALVQEVRDSHLTAVGKLLDNLNQDAPDTYHYVVSEPLGRNSYKERYLFVYRPDQVSAVDSYYYDDGCEPCGNDTFNREPAIVRFFSRFTEVREFAIVPLHAAPGDAVAEIDALYDVYLDVQEKWGLEDVMLMGDFNAGCSYVRPSQWSSIRLWTSPTFQWLIPDSADTTATPTHCAYDRIVVAGMLLRGAVVPDSALPFNFQAAYGLSDQLAQAISDHYPVEVMLK
modifications: polysialylated
notes: polysialated human DNase I, dose as equivalent of non-modified enzyme
- Average life time [2]: 30.1 months
